In ChEMBL document CHEMBL1125475, “Preferred antagonist binding state of the NMDA receptor: synthesis, pharmacology, and computer modeling of (phosphonomethyl)phenylalanine derivatives” (1992) one finds Inhibition data, which are given here for 15 compounds.

Holding throughout (format): functional
For experiment [1], the species on record is Mus musculus. Put plainly: Antagonistic activity of 100 uM of compound against electrophysiological responses induced by NMDA (10 uM) in culture mouse cortical neurons.
The species entered for experiment [2] is Mus musculus. Description: Tested for antagonistic activity against electrophysiological responses induced by NMDA (10 uM) in culture mouse cortical neurons at 100 uM.
The species named for experiment [3] is Mus musculus. Description: Tested for antagonistic activity against electrophysiological responses induced by NMDA (10 uM) in culture mouse cortical neurons at 10 uM.
Experiment [4] is filed under the species Mus musculus. Put plainly: Antagonistic activity of 10 uM of compound against electrophysiological responses induced by NMDA (10 uM) in culture mouse cortical neurons.

In the experiment filed under Mus musculus [1], `NC(Cc1ccc(CS(=O)(=O)[O-])cc1)C(=O)O.[Na+]` (centres undefined) returned an Inhibition of 0%.

`NC(CC1CCC(CP(=O)(O)O)CC1)C(=O)O` (centres undefined) registered an Inhibition in the experiment filed under Mus musculus [1] of 18%.

In the experiment filed under Mus musculus [2], `NC(Cc1cccc(CC(=O)NO)c1)C(=O)O` (centres undefined) registered an Inhibition of 12%.

As for `NC(CC1CCCCC1CS(=O)(=O)[O-])C(=O)O.[Na+]` (centres undefined), the Inhibition in the experiment filed under Mus musculus [1] is 50%.

Turning to `NC(CCCP(=O)(O)O)C(=O)O` (centres undefined), the values for the Inhibition in the experiment listed under Mus musculus [3] and in the experiment filed under Mus musculus [2] were 68% and 100%, respectively.

Consider `NC(CC1CCCCC1CP(=O)(O)O)C(=O)O` (centres undefined), for which the Inhibition in the experiment listed under Mus musculus [1] worked out at 75%.

As to `NC(CC1CCC(CS(=O)(=O)[O-])CC1)C(=O)O.[Na+]` (centres undefined), the Inhibition in the experiment listed under Mus musculus [1] is reported as 20%.

Regarding `NC(CC1CCCC(CP(=O)(O)O)C1)C(=O)O` (centres undefined), the Inhibition in the experiment filed under Mus musculus [1] stood at 90%; in the experiment listed under Mus musculus [4], 34%.

In the experiment filed under Mus musculus [1], `NC(Cc1ccccc1CS(=O)(=O)[O-])C(=O)O.[Na+]` (centres undefined) registered an Inhibition of 22%.

Consider `NC(Cc1ccc(CP(=O)(O)O)cc1)C(=O)O` (centres undefined), for which the Inhibition in the experiment listed under Mus musculus [1] worked out at 0%.

Consider `NC(Cc1cccc(CP(=O)(O)O)c1)C(=O)O` (centres undefined), for which the figures for the Inhibition in the experiment listed under Mus musculus [1] and in the experiment filed under Mus musculus [4] were 100% and 80%, respectively.

In the case of `NC(Cc1cccc(CS(=O)(=O)[O-])c1)C(=O)O.[Na+]` (centres undefined), the Inhibition in the experiment listed under Mus musculus [1] is 0%.

For the compound `NC(Cc1cccc(CC(=O)O)c1)C(=O)O` (centres undefined), the Inhibition in the experiment filed under Mus musculus [1] was 31%.

`NC(CC1CCCC(CS(=O)(=O)[O-])C1)C(=O)O.[Na+]` (centres undefined) returned an Inhibition in the experiment filed under Mus musculus [1] of 50%.

Consider `NC(Cc1ccccc1CP(=O)(O)O)C(=O)O` (centres undefined), for which the results for the Inhibition in the experiment listed under Mus musculus [1] and in the experiment listed under Mus musculus [4] were 87% and 40%, respectively.
